The test system of data set [1] is Influenza A virus. The data set can be described thus: Antiviral activity against influenza A virus A/Duck/Guangdong/99(H5N1) infected in MDCK cells assessed as reduction in virus induced cytopathic effect preincubated for 30 mins with virus followed by viral infection and measured after 48 hrs by microscopy analysis. The class given is functional, organism-based. (Damage to the host cells serves as the signal in cytopathic effect assays.)

Data set [2] is described as follows: Cytotoxicity against dog MDCK cells measured after 48 hrs by MTT assay. The class given is cell-based, Canis lupus familiaris. (Tetrazolium assays rely on reduction of a dye to a coloured formazan, in cell work by metabolically active cells.)
Data set [3] in a line: Selectivity index, ratio of CC50 for dog MDCK cells to IC50 for influenza A virus A/Duck/Guangdong/99(H5N1). Format: toxicity. The settings on record: read-out: Ratio CC50/IC50.
Data set [4] has as its target Neuraminidase (Influenza A virus (A/Puerto Rico/8/1934(H1N1))) (UniProt P03468). The data set can be described thus: Inhibition of Influenza A virus (A/Puerto Rico/8/34(H1N1) neuraminidase N1 using MUNANA as substrate preincubated for 30 mins followed by substrate addition and further incubated for 1 hr in dark by microplate reader based fluorescence assay.
For data set [5], the system named is Influenza A virus. The data set can be described thus: Antiviral activity against influenza A virus A/Duck/Guangdong/99(H5N1) infected in MDCK cells assessed as inhibition of viral replication measured after 48 hr post infection by FITC/DAPI-staining based immunofluorescence microscopy assay. Format: functional, organism-based.
Data set [6] deals with Influenza A virus. The data set can be described thus: Antiviral activity against influenza A virus H5N1 pseudovirus with HA (A/Thailand/Kan353/2004(H5N1) - HA/NA (A/Thailand/Kan353/2004(H5N1) -NA/HIV core plasmids infected in MDCK cells assessed as pseudovirus neutralization incubated for 30 mins with virus followed by viral infection and measured after 48 hrs by luciferase assay. Format: functional, organism-based.

In data set [7] the target is Hemagglutinin (Influenza A virus) (UniProt B4URE7). The experiment in a line: Inhibition of influenza A virus HA-mediated chicken erythrocytes hemagglutination measured after 1 hr.
Another data set has as its target Hemagglutinin (Influenza A virus, UniProt B4URE7). The experiment in a line: Binding affinity to influenza A virus hemagglutin by surface plasmon resonance assay. (Surface plasmon resonance follows binding to a sensor surface in real time, without labels.)
The nature of data set [8]: Binding affinity to influenza A virus hemagglutinin 1 by surface plasmon resonance assay.
Data set [9] has as its system Vesicular stomatitis virus. The experiment in a line: Antiviral activity against VSV-G pseudovirus infected in MDCK cells assessed as pseudovirus neutralization preincubated for 30 mins with virus and followed by viral infection and measured after 48 hrs by luciferase assay. The class given is functional, organism-based.

The source of these data is ChEMBL document CHEMBL4393734, “Structure-aided optimization of 3-O-β-chacotriosyl ursolic acid as novel H5N1 entry inhibitors with high selective index” (Bioorg Med Chem, 2019).

Calls of active or inactive are those of the source. The rule behind the calls is not given here. Bounds are passed on as bounds.

In general, IC50 refers to the concentration at which inhibition is half-maximal. The CC50 is the concentration giving 50% cytotoxicity. Higher therefore signals lower toxicity to the cells. As a reminder, the Kd is a measure of binding affinity in units of concentration. Read a low Kd as higher affinity.

Chain of Neuraminidase (Influenza A virus (A/Puerto Rico/8/1934(H1N1))) (P03468 whole entry): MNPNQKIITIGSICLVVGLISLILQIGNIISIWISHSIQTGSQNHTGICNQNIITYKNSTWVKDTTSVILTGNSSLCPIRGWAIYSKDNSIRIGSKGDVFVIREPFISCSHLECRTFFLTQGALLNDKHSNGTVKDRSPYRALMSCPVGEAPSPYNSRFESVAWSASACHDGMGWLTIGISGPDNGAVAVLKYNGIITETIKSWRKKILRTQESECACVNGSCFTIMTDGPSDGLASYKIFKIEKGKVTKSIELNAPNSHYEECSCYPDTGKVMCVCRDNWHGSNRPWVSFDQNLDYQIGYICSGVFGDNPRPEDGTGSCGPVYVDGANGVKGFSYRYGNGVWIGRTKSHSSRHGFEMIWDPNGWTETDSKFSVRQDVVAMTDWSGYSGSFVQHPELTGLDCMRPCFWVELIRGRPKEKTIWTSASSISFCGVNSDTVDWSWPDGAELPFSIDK
Chain of Hemagglutinin (Influenza A virus) (B4URE7 as listed by the source): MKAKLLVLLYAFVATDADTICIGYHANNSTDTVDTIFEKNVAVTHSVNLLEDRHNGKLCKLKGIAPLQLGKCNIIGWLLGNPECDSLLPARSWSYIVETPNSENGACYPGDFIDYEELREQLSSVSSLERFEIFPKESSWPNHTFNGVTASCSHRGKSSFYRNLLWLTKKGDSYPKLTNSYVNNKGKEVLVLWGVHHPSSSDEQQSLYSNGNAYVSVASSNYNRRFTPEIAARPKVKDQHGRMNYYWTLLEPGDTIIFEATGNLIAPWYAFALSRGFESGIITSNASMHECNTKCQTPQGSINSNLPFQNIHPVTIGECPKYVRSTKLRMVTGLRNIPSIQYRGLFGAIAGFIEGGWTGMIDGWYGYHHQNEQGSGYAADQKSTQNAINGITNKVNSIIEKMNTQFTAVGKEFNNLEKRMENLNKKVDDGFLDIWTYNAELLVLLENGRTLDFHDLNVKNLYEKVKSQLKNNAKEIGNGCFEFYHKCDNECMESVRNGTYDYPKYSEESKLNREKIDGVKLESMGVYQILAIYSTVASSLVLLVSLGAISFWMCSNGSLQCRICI
Chain of Hemagglutinin (B4URE7 whole entry): as the sequence (B4URE7 as listed by the source) above

As for `C[C@H]1[C@H](C)CC[C@]2(C(=O)Nc3ccc(Cl)cc3)CC[C@]3(C)C(=CC[C@@H]4[C@@]5(C)CC[C@H](O[C@@H]6O[C@H](CO)[C@@H](O[C@@H]7O[C@@H](C)[C@H](O)[C@@H](O)[C@H]7O)[C@H](O)[C@H]6O[C@@H]6O[C@@H](C)[C@H](O)[C@@H](O)[C@H]6O)C(C)(C)[C@@H]5CC[C@]43C)[C@H]12`, in the data set on Influenza A virus [1], the IC50 came to 3.48 µM. The CC50 at 48 h in [2] is above 1000 µM. Also, the selectivity ratio in [3] was above 287. The inhibition result in data set [4] is “inactive”.
Turning to `C[C@H]1[C@H](C)CC[C@]2(C(=O)O)CC[C@]3(C)C(=CC[C@@H]4[C@@]5(C)CC[C@H](O[C@@H]6O[C@H](CO)[C@@H](O[C@@H]7O[C@@H](C)[C@H](O)[C@@H](O)[C@H]7O)[C@H](O)[C@H]6O[C@@H]6O[C@@H](C)[C@H](O)[C@@H](O)[C@H]6O)C(C)(C)[C@@H]5CC[C@]43C)[C@H]12`, in the data set on Influenza A virus [1], the IC50 is 16.4 µM. This compound also returned a CC50 at 48 h in [2] of 25.3 µM. For the same compound, in [3], the selectivity ratio is 1.5.
For the compound `C[C@H]1[C@H](C)CC[C@]2(C(=O)Nc3ccc(OC(F)(F)F)cc3)CC[C@]3(C)C(=CC[C@@H]4[C@@]5(C)CC[C@H](O[C@@H]6O[C@H](CO)[C@@H](O[C@@H]7O[C@@H](C)[C@H](O)[C@@H](O)[C@H]7O)[C@H](O)[C@H]6O[C@@H]6O[C@@H](C)[C@H](O)[C@@H](O)[C@H]6O)C(C)(C)[C@@H]5CC[C@]43C)[C@H]12`, the concentration for half-maximal inhibition (IC50) with Influenza A virus [1] was determined as 8.56 µM. In data set [2], half-maximal cytotoxicity (CC50 at 48 h) was put at 451 µM. Further, the selectivity ratio in data set [3] came to 52.6.
In the case of `COc1ccccc1NC(=O)[C@]12CC[C@@H](C)[C@H](C)[C@H]1C1=CC[C@@H]3[C@@]4(C)CC[C@H](O[C@@H]5O[C@H](CO)[C@@H](O[C@@H]6O[C@@H](C)[C@H](O)[C@@H](O)[C@H]6O)[C@H](O)[C@H]5O[C@@H]5O[C@@H](C)[C@H](O)[C@@H](O)[C@H]5O)C(C)(C)[C@@H]4CC[C@@]3(C)[C@]1(C)CC2`, the IC50 with Influenza A virus [1] worked out at 1.05 µM; in the data set on Influenza A virus [6], 1.28 µM. In addition, in data set [2], the CC50 at 48 h was above 1000 µM. Further, the selectivity ratio in data set [3] is above 952. The Activity result in the data set on Influenza A virus [5] was “Dose-dependent effect”. Moreover, the inhibition result in data set [4] and in data set [9] was “inactive” each time. Further, the inhibition result in [7] is “Dose-dependent effect”. The Kd at Hemagglutinin amounted to 0.00122 µM; in data set [8] it was 0.44 µM.
Take `C[C@H]1[C@H](C)CC[C@]2(C(=O)Nc3cccc(Cl)c3)CC[C@]3(C)C(=CC[C@@H]4[C@@]5(C)CC[C@H](O[C@@H]6O[C@H](CO)[C@@H](O[C@@H]7O[C@@H](C)[C@H](O)[C@@H](O)[C@H]7O)[C@H](O)[C@H]6O[C@@H]6O[C@@H](C)[C@H](O)[C@@H](O)[C@H]6O)C(C)(C)[C@@H]5CC[C@]43C)[C@H]12`: the IC50 with Influenza A virus [1] was determined as 7.35 µM. Further, the CC50 at 48 h in data set [2] is above 1000 µM. In addition, in data set [3], the selectivity ratio is above 136.
The matching figures for `COc1ccc(CNC(=O)[C@]23CC[C@@H](C)[C@H](C)[C@H]2C2=CC[C@@H]4[C@@]5(C)CC[C@H](O[C@@H]6O[C@H](CO)[C@@H](O[C@@H]7O[C@@H](C)[C@H](O)[C@@H](O)[C@H]7O)[C@H](O)[C@H]6O[C@@H]6O[C@@H](C)[C@H](O)[C@@H](O)[C@H]6O)C(C)(C)[C@@H]5CC[C@@]4(C)[C@]2(C)CC3)cc1`: 8.72 µM, 100 µM and 11.5.
As to `COc1cccc(NC(=O)[C@]23CC[C@@H](C)[C@H](C)[C@H]2C2=CC[C@@H]4[C@@]5(C)CC[C@H](O[C@@H]6O[C@H](CO)[C@@H](O[C@@H]7O[C@@H](C)[C@H](O)[C@@H](O)[C@H]7O)[C@H](O)[C@H]6O[C@@H]6O[C@@H](C)[C@H](O)[C@@H](O)[C@H]6O)C(C)(C)[C@@H]5CC[C@@]4(C)[C@]2(C)CC3)c1`, the IC50 in the data set on Influenza A virus [1] amounted to 5.92 µM. In addition, in [2], the CC50 at 48 h is above 1000 µM. The selectivity ratio in [3] was above 113.
The corresponding values for `C[C@H]1[C@H](C)CC[C@]2(C(=O)N3CCCC3)CC[C@]3(C)C(=CC[C@@H]4[C@@]5(C)CC[C@H](O[C@@H]6O[C@H](CO)[C@@H](O[C@@H]7O[C@@H](C)[C@H](O)[C@@H](O)[C@H]7O)[C@H](O)[C@H]6O[C@@H]6O[C@@H](C)[C@H](O)[C@@H](O)[C@H]6O)C(C)(C)[C@@H]5CC[C@]43C)[C@H]12` are 3.25 µM, 42.4 µM and 13.
As for `C[C@H]1[C@H](C)CC[C@]2(C(=O)Nc3ccc(Br)cc3)CC[C@]3(C)C(=CC[C@@H]4[C@@]5(C)CC[C@H](O[C@@H]6O[C@H](CO)[C@@H](O[C@@H]7O[C@@H](C)[C@H](O)[C@@H](O)[C@H]7O)[C@H](O)[C@H]6O[C@@H]6O[C@@H](C)[C@H](O)[C@@H](O)[C@H]6O)C(C)(C)[C@@H]5CC[C@]43C)[C@H]12`, the half-inhibitory concentration (IC50) in the data set with Influenza A virus [1] was above 50 µM.
As to `COc1ccc(NC(=O)[C@]23CC[C@@H](C)[C@H](C)[C@H]2C2=CC[C@@H]4[C@@]5(C)CC[C@H](O[C@@H]6O[C@H](CO)[C@@H](O[C@@H]7O[C@@H](C)[C@H](O)[C@@H](O)[C@H]7O)[C@H](O)[C@H]6O[C@@H]6O[C@@H](C)[C@H](O)[C@@H](O)[C@H]6O)C(C)(C)[C@@H]5CC[C@@]4(C)[C@]2(C)CC3)cc1`, the IC50 in the data set with Influenza A virus [1] was 2.12 µM. Moreover, the CC50 at 48 h in data set [2] was above 1000 µM. Besides, the selectivity ratio in data set [3] is above 472. Besides, the inhibition entry in [4] is “inactive”.
As to `C[C@H]1[C@H](C)CC[C@]2(C(=O)NCCN(C)C)CC[C@]3(C)C(=CC[C@@H]4[C@@]5(C)CC[C@H](O[C@@H]6O[C@H](CO)[C@@H](O[C@@H]7O[C@@H](C)[C@H](O)[C@@H](O)[C@H]7O)[C@H](O)[C@H]6O[C@@H]6O[C@@H](C)[C@H](O)[C@@H](O)[C@H]6O)C(C)(C)[C@@H]5CC[C@]43C)[C@H]12`, in the data set with Influenza A virus [1], the IC50 is above 50 µM.
Consider `C[C@H]1[C@H](C)CC[C@]2(C(=O)NCc3ccccc3)CC[C@]3(C)C(=CC[C@@H]4[C@@]5(C)CC[C@H](O[C@@H]6O[C@H](CO)[C@@H](O[C@@H]7O[C@@H](C)[C@H](O)[C@@H](O)[C@H]7O)[C@H](O)[C@H]6O[C@@H]6O[C@@H](C)[C@H](O)[C@@H](O)[C@H]6O)C(C)(C)[C@@H]5CC[C@]43C)[C@H]12`, for which, in the data set on Influenza A virus [1], the IC50 came out at 9.35 µM. For the same compound, half-maximal cytotoxicity in data set [2] (CC50 at 48 h) was put at 123 µM. In addition, the selectivity ratio in [3] was found to be 13.2.
The matching figures for `C[C@H]1[C@H](C)CC[C@]2(C(=O)Nc3ccccc3Cl)CC[C@]3(C)C(=CC[C@@H]4[C@@]5(C)CC[C@H](O[C@@H]6O[C@H](CO)[C@@H](O[C@@H]7O[C@@H](C)[C@H](O)[C@@H](O)[C@H]7O)[C@H](O)[C@H]6O[C@@H]6O[C@@H](C)[C@H](O)[C@@H](O)[C@H]6O)C(C)(C)[C@@H]5CC[C@]43C)[C@H]12`: 2.98 µM, 306 µM and 103.
The matching figures for `C[C@H]1[C@H](C)CC[C@]2(C(=O)Nc3ccc(F)cc3)CC[C@]3(C)C(=CC[C@@H]4[C@@]5(C)CC[C@H](O[C@@H]6O[C@H](CO)[C@@H](O[C@@H]7O[C@@H](C)[C@H](O)[C@@H](O)[C@H]7O)[C@H](O)[C@H]6O[C@@H]6O[C@@H](C)[C@H](O)[C@@H](O)[C@H]6O)C(C)(C)[C@@H]5CC[C@]43C)[C@H]12`: 5.28 µM, above 1000 µM and above 189.
The matching figures for `CNC(=O)[C@]12CC[C@@H](C)[C@H](C)[C@H]1C1=CC[C@@H]3[C@@]4(C)CC[C@H](O[C@@H]5O[C@H](CO)[C@@H](O[C@@H]6O[C@@H](C)[C@H](O)[C@@H](O)[C@H]6O)[C@H](O)[C@H]5O[C@@H]5O[C@@H](C)[C@H](O)[C@@H](O)[C@H]5O)C(C)(C)[C@@H]4CC[C@@]3(C)[C@]1(C)CC2`: 11.2 µM, 683 µM and 60.7.
As to `C[C@H]1[C@H](C)CC[C@]2(C(=O)Nc3ccccc3)CC[C@]3(C)C(=CC[C@@H]4[C@@]5(C)CC[C@H](O[C@@H]6O[C@H](CO)[C@@H](O[C@@H]7O[C@@H](C)[C@H](O)[C@@H](O)[C@H]7O)[C@H](O)[C@H]6O[C@@H]6O[C@@H](C)[C@H](O)[C@@H](O)[C@H]6O)C(C)(C)[C@@H]5CC[C@]43C)[C@H]12`, in the data set with Influenza A virus [1], the IC50 turned out to be 5.85 µM. In [2], this compound showed a 50% cytotoxic concentration (CC50) at 48 h above 1000 µM. Further, the selectivity ratio in data set [3] is above 171.
